Experimental findings from PMC10272180, “Ancient medicinal plant rosemary contains a highly efficacious and isoform-selective KCNQ potassium channel opener” (Communications Biology, 2023) are described below.

SMILES strings stand for the structures.

One data set concerns the target T1, KCNQ3/5 (Homo sapiens, UniProt O43525+Q9NR82).
T1 construct: expressed in transfected cells; host or cells: Xenopus laevis oocytes co-injected with cRNAs
Nature of the data set: TEVC of KCNQ3/5 heteromers expressed in Xenopus laevis oocytes. In kind it is cell-based. The note with it: 5 µM each substance. From the text:
(§1) We generated cRNA transcripts encoding human KCNQ1, 2, 3, and 5 (wild-type and mutant) by in vitro transcription using the mMessage mMachine kit (Thermo Fisher Scientific, Waltham, MA, USA) according to manufacturer’s instructions, after vector linearization, from cDNA sub-cloned into expression vectors (pTLNx and pXOOM) incorporating Xenopus laevis β-globin 5’ and 3’ UTRs flanking the coding region to enhance translation and cRNA stability. Mutant KCNQ cDNAs were generated by Genscript (Piscataway, NJ, USA) and cRNAs made as above. We injected defolliculated stage V and VI Xenopus laevis oocytes (Xenoocyte, Dexter, MI, USA) with KCNQ cRNAs (2–10 ng) and incubated the oocytes at 16 °C in ND96 oocyte storage solution containing penicillin and streptomycin, with daily washing, for 2–4 days prior to two-electrode voltage-clamp (TEVC) recording.
(§2) We performed TEVC at room temperature using an OC-725C amplifier (Warner Instruments, Hamden, CT, USA) and pClamp10 software (Molecular Devices, Sunnyvale, CA, USA) 2–4 days after cRNA injection. We placed oocytes in a small-volume oocyte bath (Warner) and viewed them with a dissection microscope for cellular electrophysiology. We sourced chemicals from Sigma-Aldrich (St. Louis, MO, USA) and Combi-Blocks (San Diego, CA, USA). We studied effects of Salvia rosmarinus extracts and of compounds, solubilized directly in bath solution (in mM): 96 NaCl, 4 KCl, 1 MgCl2, 1 CaCl2, 10 HEPES (pH 7.6). We introduced extracts or compounds into the oocyte recording bath by gravity perfusion at a constant flow of 1 ml per minute for 3 min prior to recording. Pipettes were of 1-2 MΩ resistance when filled with 3 M KCl. […] We analyzed data using Clampfit (Molecular Devices) and Graphpad Prism software (GraphPad, San Diego, CA, USA), stating values as mean ± SEM. We plotted raw or normalized tail currents versus prepulse voltage and fitted with a single Boltzmann function:1 g=(A1−A2)/1+exp[V1/2−V/Vs]y+A2 where g is the normalized tail conductance, A1 is the initial value at -∞, A2 is the final value at +∞, V1/2 is the half-maximal voltage of activation and Vs the slope factor. We fitted activation and deactivation kinetics with single exponential functions.

A further data set has as its target KCNQ3* (KCNQ3-A315T) (Homo sapiens, UniProt O43525, A315T). Nature of the data set: TEVC of KCNQ3* homomers expressed in Xenopus laevis oocytes. In kind it is cell-based.
For another data set, the target named is T2, KCNQ2/3 (Homo sapiens, UniProt O43525+O43526).
T2 construct: expressed in transfected cells; host or cells: Xenopus laevis oocytes co-injected with cRNAs
Nature of the data set: TEVC of KCNQ2/3 heteromers expressed in Xenopus laevis oocytes. It is filed as cell-based.
From the text: as §1
as §2, with “We” for “We performed TEVC at room temperature using an OC-725C amplifier (Warner Instruments, Hamden, CT, USA) and pClamp10 software (Molecular Devices, Sunnyvale, CA, USA) 2–4 days after cRNA injection. We”

Data set [1] is described as follows: Solubility limit for testing in bath solution. In kind it is physicochemical. The text has this: We performed TEVC at room temperature using an OC-725C amplifier (Warner Instruments, Hamden, CT, USA) and pClamp10 software (Molecular Devices, Sunnyvale, CA, USA) 2–4 days after cRNA injection. We placed oocytes in a small-volume oocyte bath (Warner) and viewed them with a dissection microscope for cellular electrophysiology. We sourced chemicals from Sigma-Aldrich (St. Louis, MO, USA) and Combi-Blocks (San Diego, CA, USA). We studied effects of Salvia rosmarinus extracts and of compounds, solubilized directly in bath solution (in mM): 96 NaCl, 4 KCl, 1 MgCl2, 1 CaCl2, 10 HEPES (pH 7.6). We introduced extracts or compounds into the oocyte recording bath by gravity perfusion at a constant flow of 1 ml per minute for 3 min prior to recording. Pipettes were of 1-2 MΩ resistance when filled with 3 M KCl. We recorded currents in response to voltage pulses between −120 mV and +40 mV at 10 mV intervals from a holding potential of −80 mV, to yield current-voltage relationships and examine activation kinetics. We analyzed data using Clampfit (Molecular Devices) and Graphpad Prism software (GraphPad, San Diego, CA, USA), stating values as mean ± SEM. We plotted raw or normalized tail currents versus prepulse voltage and fitted with a single Boltzmann function:1 g=(A1−A2)/1+exp[V1/2−V/Vs]y+A2 where g is the normalized tail conductance, A1 is the initial value at -∞, A2 is the final value at +∞, V1/2 is the half-maximal voltage of activation and Vs the slope factor. We fitted activation and deactivation kinetics with single exponential functions.

The target in a further data set is KCNQ2 (Homo sapiens, UniProt O43526). Nature of the data set: TEVC of KCNQ2 homomers expressed in Xenopus laevis oocytes. In kind it is cell-based.
From the text: as §1, §2

Setting [2] is: 5 µM each substance, table head prints KCNQ3*, text says KCNQ3/5.

Sequence of KCNQ3* (KCNQ3-A315T) (O43525 whole entry A315T): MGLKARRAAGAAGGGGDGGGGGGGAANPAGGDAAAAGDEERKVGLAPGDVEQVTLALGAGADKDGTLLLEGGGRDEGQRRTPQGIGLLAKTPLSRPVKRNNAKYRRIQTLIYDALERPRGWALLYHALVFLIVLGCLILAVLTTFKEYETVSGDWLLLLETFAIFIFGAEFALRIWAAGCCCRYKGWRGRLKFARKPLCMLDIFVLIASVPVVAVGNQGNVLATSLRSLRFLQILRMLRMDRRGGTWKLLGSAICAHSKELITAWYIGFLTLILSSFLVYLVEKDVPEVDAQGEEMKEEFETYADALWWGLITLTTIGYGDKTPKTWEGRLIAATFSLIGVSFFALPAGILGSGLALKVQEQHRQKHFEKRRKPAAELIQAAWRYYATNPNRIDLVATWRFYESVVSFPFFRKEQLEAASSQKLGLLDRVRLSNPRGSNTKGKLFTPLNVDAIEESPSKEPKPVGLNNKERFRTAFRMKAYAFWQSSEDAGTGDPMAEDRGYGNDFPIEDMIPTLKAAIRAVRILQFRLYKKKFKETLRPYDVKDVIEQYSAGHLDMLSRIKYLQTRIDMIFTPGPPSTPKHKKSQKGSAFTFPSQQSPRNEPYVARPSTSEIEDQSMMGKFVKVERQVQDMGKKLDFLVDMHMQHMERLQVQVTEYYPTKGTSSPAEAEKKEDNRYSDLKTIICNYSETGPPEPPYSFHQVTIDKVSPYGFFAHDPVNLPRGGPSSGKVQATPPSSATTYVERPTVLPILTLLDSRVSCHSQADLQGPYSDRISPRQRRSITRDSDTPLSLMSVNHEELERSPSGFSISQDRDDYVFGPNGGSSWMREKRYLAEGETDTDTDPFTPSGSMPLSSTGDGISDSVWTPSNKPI

For the compound `C1=C2CCCN[C@H]2[C@@H]2C[C@H]1[C@H]1CCCCN1C2` [Aloperine, aloperine, reference compound], the channel opening result at KCNQ3/5 is “weak KCNQ3/5 opener”. Also, on KCNQ3* (KCNQ3-A315T) (setting [2]), the Slope is reported as 6.96 ± 0.67 mV and the “V0.5 Normalized tail current” value is given as -46.72 ± 0.78 mV.

Regarding `CC(=O)Oc1c(C(C)C)cc2c(c1OC(C)=O)C1(C(=O)O)CCCC(C)(C)C1CC2` (stereo not drawn) [Carnosic acid diacetate], on KCNQ2/3 (10 µM), the Slope is 6.11 ± 0.49 mV, the “V0.5 Normalized tail current” value is listed as -38.43 ± 0.56 mV and the “shift in V0.5act / opening” value is on record as “only weakly negative-shifted”. For the same compound, on KCNQ3* (KCNQ3-A315T) (10 µM), the Slope amounted to 5.06 ± 0.63 mV, the “V0.5 Normalized tail current” value is reported as -50.38 ± 0.69 mV and the “shift in V0.5act / opening” value was “only weakly negative-shifted”. Besides, in data set [1] (pH 7.6), the “solubility (highest testable concentration)” value is “solubility issues”.

Take `CC(C)c1cc2c3c(c1O)OC(=O)C31CCCC(C)(C)C1CC2` (stereo not drawn) [Carnosic gamma lactone, carnosic acid γ-lactone]: on KCNQ2 (10 µM), the Slope is 6.47 ± 0.40 mV and the “V0.5 Normalized tail current” value is -46.18 ± 0.46 mV. On KCNQ2/3 (10 µM), the Slope amounted to 6.78 ± 0.62 mV, the “V0.5 Normalized tail current” value was -40.71 ± 0.71 mV, the “effect on EM of unclamped oocytes” value is “without hyperpolarizing” and the “shift in V0.5act / opening” value is reported as −10 mV. Besides, at KCNQ3* (KCNQ3-A315T) (10 µM), the Slope is 4.81 ± 0.56 mV, the “V0.5 Normalized tail current” value is -54.06 ± 0.70 mV, the “effect on EM of unclamped oocytes” value is on record as “without hyperpolarizing” and the “shift in V0.5act / opening” value is −8.7 mV. For the same compound, the “solubility (highest testable concentration)” value in data set [1] (bath solution) is listed as “solubility issues”.

Consider `CC(C)c1cc2c(c(O)c1O)[C@@]13CCCC(C)(C)[C@@H]1C[C@@H]2OC3=O` [Carnosol], for which the Slope at KCNQ2 (100 µM) was found to be 3.97 ± 1.31 mV; on KCNQ2/3 (100 µM), 5.82 ± 0.75 mV; on KCNQ3* (KCNQ3-A315T) (100 µM) it was 5.00 ± 1.11 mV. Moreover, the figures for the “V0.5 Normalized tail current” value on KCNQ2 (100 µM), on KCNQ2/3 (100 µM) and on KCNQ3* (KCNQ3-A315T) (100 µM) were -57.08 ± 1.31 mV, -47.80 ± 0.87 mV and -61.13 ± 1.28 mV, respectively. Besides, the “effect on EM of unclamped oocytes” value at KCNQ2 (100 µM), at KCNQ2/3 (100 µM) and at KCNQ3* (KCNQ3-A315T) (100 µM (hesperidin 30 µM)) was “did not alter” each time. The “shift in V0.5act” value on KCNQ2/3 (100 µM) is listed as “no shift”; at KCNQ3* (KCNQ3-A315T) (100 µM), −11 mV.

On to `COc1c(C(C)C)cc2c(c1OC)C13CCCC(C)(C)C1CC2OC3=O` (stereo not drawn) [Dimethylcarnosol, dimethyl carnosol], for which, on KCNQ2/3 (100 µM), the Slope is reported as 6.71 ± 0.64 mV and the “V0.5 Normalized tail current” value is listed as -37.81 ± 0.73 mV. On KCNQ3* (KCNQ3-A315T) (100 µM), the Slope is listed as 4.92 ± 0.40 mV and the “V0.5 Normalized tail current” value is -49.25 ± 0.43 mV. Besides, the “hyperpolarization of EM” value at KCNQ3* (KCNQ3-A315T) (100 µM, unclamped oocytes) is on record as greater than 8 mV.

For the compound `COc1ccc([C@@H]2CC(=O)c3c(O)cc(O[C@@H]4O[C@H](CO[C@@H]5O[C@@H](C)[C@H](O)[C@@H](O)[C@H]5O)[C@@H](O)[C@H](O)[C@H]4O)cc3O2)cc1O` [Hesperidin, hesperidin], the channel opening entry on KCNQ2 (30 µM) was “did not open”. Also, on KCNQ2 (100 µM), the Slope is listed as 6.54 ± 0.41 mV and the “V0.5 Normalized tail current” value was -45.73 ± 0.48 mV. In addition, at KCNQ2/3 (30 µM), the Slope was 7.73 ± 0.60 mV, the “V0.5 Normalized tail current” value is recorded as -48.08 ± 0.71 mV, the V0.5act shift was −10.4 mV and the “V0.5 non-normalized tail current” value is listed as -48.30 ± 2.77 mV. The “effect on EM of unclamped oocytes” value on KCNQ2/3 (30 µM) was “hyperpolarized”. Besides, at KCNQ3* (KCNQ3-A315T) (30 µM), the Slope is reported as 4.65 ± 0.46 mV, the “V0.5 Normalized tail current” value is given as -55.97 ± 0.57 mV, the “V0.5 non-normalized tail current” value is -55.83 ± 1.97 mV and the “shift in V0.5act” value was ~ −10 mV. In addition, the “effect on EM of unclamped oocytes” value at KCNQ3* (KCNQ3-A315T) (100 µM (hesperidin 30 µM)) is “hyperpolarized”. Moreover, in data set [1] (oocyte recording bath solution, pH 7.6, aqueous buffer, read-out: solubility (highest testable concentration)), the solubility was no more than 30 µM.

For `COC(=O)[C@]12CCCC(C)(C)[C@@H]1CCc1cc(C(C)C)c(O)c(O)c12` [Methyl carnosate, methyl carnosate], on KCNQ2/3 (10 µM), the Slope is on record as 10.46 ± 0.87 mV, the “V0.5 Normalized tail current” value is given as -34.00 ± 0.97 mV and the “shift in V0.5act / opening” value is recorded as “did not open”. Also, at KCNQ3* (KCNQ3-A315T) (10 µM), the Slope is listed as 4.63 ± 0.74 mV, the “V0.5 Normalized tail current” value is recorded as -47.09 ± 0.74 mV and the “shift in V0.5act / opening” value was “only a weak activator”. Further, the “solubility (highest testable concentration)” value in data set [1] (pH 7.6) is recorded as “poor solubility”.

In the case of `CC(C)c1cc2c(cc1O)C1(C(=O)O)CCCC(C)(C)C1CC2` (stereo not drawn) [Pisiferic acid, pisiferic acid], on KCNQ2/3 (100 µM), the Slope turned out to be 7.44 ± 0.55 mV and the “V0.5 Normalized tail current” value is reported as -42.05 ± 0.63 mV. On KCNQ3* (KCNQ3-A315T) (100 µM), the Slope was 4.89 ± 0.45 mV, the “V0.5 Normalized tail current” value was -51.70 ± 0.51 mV and the “shift in V0.5act” value was “only weakly negative-shifted”.

For `O=C(O)[C@]1(O)C[C@@H](O)[C@@H](O)[C@H](O)C1` [Quinic acid, quinic acid], at KCNQ2/3 (100 µM), the Slope is listed as 4.07 ± 0.85 mV, the “V0.5 Normalized tail current” value is reported as -47.87 ± 0.94 mV and the “V0.5 non-normalized tail current” value is given as -45.78 ± 1.64 mV. Also, on KCNQ3* (KCNQ3-A315T) (100 µM), the Slope worked out at 3.96 ± 0.88 mV, the “V0.5 Normalized tail current” value is on record as -53.04 ± 1.09 mV, the “V0.5 non-normalized tail current” value was -51.87 ± 2.53 mV and the “shift in V0.5act” value was ~ −10 mV.

As to `COc1cc(C(=O)O)cc(OC)c1O` [Syringic acid], at KCNQ2/3 (100 µM), the Slope is 5.13 ± 0.75 mV, the “V0.5 Normalized tail current” value is listed as -47.76 ± 0.91 mV and the “V0.5 non-normalized tail current” value was -44.21 ± 2.07 mV. Besides, on KCNQ3* (KCNQ3-A315T) (100 µM), the Slope turned out to be 4.92 ± 1.03 mV, the “V0.5 Normalized tail current” value is given as -49.16 ± 1.21 mV and the “V0.5 non-normalized tail current” value was -51.58 ± 5.36 mV.

On KCNQ3* (KCNQ3-A315T) (100 µM), `C[C@H]1[C@H](C)CC[C@]2(C(=O)O)CC[C@]3(C)C(=CC[C@@H]4[C@@]5(C)CC[C@H](O)C(C)(C)[C@@H]5CC[C@]43C)[C@H]12` [Ursolic acid] displayed a Slope of 4.49 ± 0.53 mV.

For `COC[C@H]1OC(=O)c2coc3c2[C@@]1(C)C1=C(C3=O)[C@@H]2CCC(=O)[C@@]2(C)C[C@H]1OC(C)=O` [wortmannin, reference compound], at KCNQ3* (KCNQ3-A315T) (wortmannin pretreatment to reduce PIP2), the “reduction of KCNQ3* current magnitude” value is given as “~ fivefold”.
